Patent US4076814A, “Preventive and curative compositions against mycoplasmosis” (Sankyo Company Limited, priority 1975, dated 1978)
Values after ≈ are worked out from the molar mass of the structure shown. Structures can show the parent of a compound that is named as a salt.

Experiments:
Mycoplasma gallisepticum = assay: Antimicrobial test, conventional agar plate dilution method, Mycoplasma gallisepticum; format: cell-based; conditions: for MIC: Mycoplasmoides gallisepticum, read-out: Minimum Inhibitory Concentration, Mycoplasma gallisepticum
Excerpt: (§1) ANTIMICROBIAL TEST AGAINST THREE STRAINS OF MYCOPLASMA
(§2) The test was effected by a conventional agar plate dilution method using the indicated strains of mycoplasma. The dithiocarbamic acid derivatives as shown below with Compound Nos. were employed in the test.

Mycoplasma pulmonis = assay: Antimicrobial test, conventional agar plate dilution method, Mycoplasma pulmonis; format: cell-based; conditions: for MIC: Mycoplasma, read-out: Minimum Inhibitory Concentration, Mycoplasma pulmonis
Excerpt: as §1, §2

Mycoplasma hyorhinis = assay: Antimicrobial test, conventional agar plate dilution method, Mycoplasma hyorhinis; format: cell-based; conditions: for MIC: Mycoplasma, read-out: Minimum Inhibitory Concentration, Mycoplasma hyorhinis
Excerpt: as §1, §2

[1] = system: MRL-4 strain of mycoplasma pulmonis; assay: Curative effect in mice infected with MRL-4 strain of mycoplasma pulmonis by oral administration in feed; format: in vivo; conditions: 10 days, after one month
Procedure: Each of the dithiocarbamic acid derivatives as indicated below with Compound No. was added to a feed and administered orally to mice infected artificially with MRL-4 strain of mycoplasma pulmonis. The effectiveness of the treatment was evaluated. Six groups, each group consisting of ten female mice which were negative in the test for mycoplasmosis, were used. After MRL-4 strain of mycoplasma pulmonis was cultured in PPLO agar medium, the colonies of the surface of the medium were diluted with a phosphate buffer solution to prepare a solution containing about 10^9 /ml of mycoplasma. 0.1 ml of the microbe-containing solution was injected intravenously to the tail of each mouse. For consecutive 10 days from the next day of the injection, the mice were fed with a powdery feed containing the active compound at respective concentrations of 0.04, 0.02, 0.01 and 0.005%, respectively. During the experiment period, all the procedures were conducted in a vinyl isolater.
After one month from the starting of the experiment, the presence of arthritis was visually investigated and at the same time the presence of pneumonia was also investigated after dissection. Recovery tests of mycoplasma and general bacteria were conducted using the joints and lungs of host subjects as the testing materials.

SMILES | MIC (Mycoplasma gallisepticum) [µg/mL] | MIC (Mycoplasma pulmonis) [µg/mL] | MIC (Mycoplasma hyorhinis) [µg/mL] | Attack rate arthritis ([1]; 0.005% in feed) | Attack rate pneumonia ([1]; 0.005% in feed) | Recovery of mycoplasma joint ([1]; 0.005% in feed) | Recovery of mycoplasma lung ([1]; 0.005% in feed) | Attack rate arthritis ([1]; 0.01% in feed) | Attack rate pneumonia ([1]; 0.01% in feed) | Recovery of mycoplasma joint ([1]; 0.01% in feed) | Recovery of mycoplasma lung ([1]; 0.01% in feed) | Attack rate arthritis ([1]; 0.02% in feed) | Attack rate pneumonia ([1]; 0.02% in feed) | Recovery of mycoplasma joint ([1]; 0.02% in feed) | Recovery of mycoplasma lung ([1]; 0.02% in feed) | Attack rate arthritis ([1]; 0.04% in feed) | Attack rate pneumonia ([1]; 0.04% in feed) | Recovery of mycoplasma joint ([1]; 0.04% in feed) | Recovery of mycoplasma lung ([1]; 0.04% in feed) | further results
CC(=O)CCSC(=S)N1CCCCC1 [compound 88, 2-Acetylethyl 1-piperidinecarbodithioate] | 0.05 (≈ 0.216 µM) | 0.05 (≈ 0.216 µM) | 0.025 (≈ 0.108 µM) | 3/10 | 0/10 | 3/10 | 0/10 | 1/10 | 0/10 | 1/10 | 0/10 | 0/10 | 0/10 | 0/10 | 0/10 | 0/10 | 0/10 | 0/10 | 0/10 | –
CCN(CC)C(=S)SCCC(C)=O [compound 79, 2-Acetylethyl diethyldithiocarbamate] | 0.012 (≈ 0.0547 µM) | 0.012 (≈ 0.0547 µM) | 0.012 (≈ 0.0547 µM) | 2/10 | 0/10 | 2/10 | 0/10 | 0/10 | 0/10 | 0/10 | 0/10 | 0/10 | 0/10 | 0/10 | 0/10 | 0/10 | 0/10 | 0/10 | 0/10 | –
CCN(CC)C(=S)SCCC(=O)c1ccccc1 [compound 24, 2-Benzoylethyl diethyldithiocarbamate] | 0.05 (≈ 0.178 µM) | 0.2 (≈ 0.711 µM) | 0.39 (≈ 1.39 µM) | 4/10 | 0/10 | 4/10 | 0/10 | 3/10 | 0/10 | 3/10 | 0/10 | 2/10 | 0/10 | 2/10 | 0/10 | 0/10 | 0/10 | 0/10 | 0/10 | –
O=C1CCCCC1CSC(=S)N1CCOCC1 (stereo not shown) [Compound No. 12, 2-Oxocyclohexylmethyl 4-morpholinecarbodithioate] | 0.05 (≈ 0.183 µM) | 0.2 (≈ 0.731 µM) | 0.39 (≈ 1.43 µM) | 6/10 | 0/10 | 6/10 | 0/10 | 4/10 | 0/10 | 4/10 | 0/10 | 1/10 | 0/10 | 1/10 | 0/10 | 0/10 | 0/10 | 0/10 | 0/10 | –
CN1CCN(C(=S)SCc2oc(CO)cc(=O)c2O)CC1 [compound 263, 5-Hydroxy-2-hydroxymethyl-4-oxo-4H-pyran-6-ylmethyl-4-methyl-1-piperazinecarbodithioate] | 1.56 (≈ 4.72 µM) | 3.13 (≈ 9.47 µM) | 3.13 (≈ 9.47 µM) | – | – | – | – | – | – | – | – | – | – | – | – | – | – | – | – | –
CC(=O)C(C)CSC(=S)N(C)C (stereo not shown) [Compound No. 147, 2-Acetylpropyl dimethyldithiocarbamate] | 0.05 (≈ 0.243 µM) | 0.05 (≈ 0.243 µM) | 0.05 (≈ 0.243 µM) | – | – | – | – | – | – | – | – | – | – | – | – | – | – | – | – | –
CC(C)(C)c1cc(CSC(=S)N2CCCCC2)cc(C(C)(C)C)c1O [compound 218, 4-Hydroxy-3,5-di-t-butylbenzyl 1-piperidinecarbodithioate] | 0.78 (≈ 2.05 µM) | 0.39 (≈ 1.03 µM) | 0.39 (≈ 1.03 µM) | – | – | – | – | – | – | – | – | – | – | – | – | – | – | – | – | –
CC(=O)CCSC(=S)N(C)C [compound 78, 2-Acetylethyl dimethyldithiocarbamate] | 0.05 (≈ 0.261 µM) | 0.05 (≈ 0.261 µM) | 0.025 (≈ 0.131 µM) | – | – | – | – | – | – | – | – | – | – | – | – | – | – | – | – | –
Cc1ccccc1C(=O)CCSC(=S)N(C)C [compound 57, 2-(o-Toluoyl)ethyl dimethyldithiocarbamate] | 0.1 (≈ 0.374 µM) | 0.2 (≈ 0.748 µM) | 0.1 (≈ 0.374 µM) | – | – | – | – | – | – | – | – | – | – | – | – | – | – | – | – | –
Cc1cc(CSC(=S)N(C)C)cc(CN(C)C)c1O [compound 236, 4-Hydroxy-3-dimethylaminomethyl-5-methylbenzyl dimethyldithiocarbamate] | 0.2 (≈ 0.67 µM) | 0.2 (≈ 0.67 µM) | 0.2 (≈ 0.67 µM) | – | – | – | – | – | – | – | – | – | – | – | – | – | – | – | – | –
Cc1cc2c(c(O)c1CSC(=S)N1CCN(C)CC1)C1OCC34CCCC(C)(C)C3CCC(C)(O2)C14 (stereo not shown) [compound 272, 16-(4-Methyl-1-piperazinethiocarbonylthiomethyl)-siccanin] | 0.39 (≈ 0.735 µM) | 0.39 (≈ 0.735 µM) | 0.39 (≈ 0.735 µM) | – | – | – | – | – | – | – | – | – | – | – | – | – | – | – | – | –
CCN(CC)C(=S)SCCC(=O)C=Cc1ccccc1 [compound 135, 2-Cinnamoylethyl diethyldithiocarbamate] | 0.2 (≈ 0.65 µM) | 0.2 (≈ 0.65 µM) | 0.2 (≈ 0.65 µM) | – | – | – | – | – | – | – | – | – | – | – | – | – | – | – | – | –
Cc1cc2c(c(O)c1CSC(=S)N1CCN(C)CC1)C1OCC34CCCC(C)(C)C3CCC(C)(O2)C14 (stereo not shown) [compound 273, 16-(4-Methyl-1-piperazinethiocarbonylthiomethyl)siccanin hydrochloride] | – | – | – | – | – | – | – | – | – | – | – | – | – | – | – | – | – | – | – | Minimum Inhibitory Concentration, Mycoplasma gallisepticum (Mycoplasma gallisepticum; hydrochloride): 0.78 µg/mL; Minimum Inhibitory Concentration, Mycoplasma pulmonis (Mycoplasma pulmonis; hydrochloride): 0.78 µg/mL; Minimum Inhibitory Concentration, Mycoplasma hyorhinis (Mycoplasma hyorhinis; hydrochloride): 0.78 µg/mL
